# Tests used:
# [1] = test system: CHO 9E4 cells; details: MSX 25 μM; 13C3; 960 wells tested; growing clones after 15 to 20 days
# [2] = test system: CHO 9E4 cell line; assay: Selection of stably transfected CHO 9E4 cells with leflunomide or teriflunomide as selection agent; format: cell-based, Chinese hamster; details: for Antibody: Less than 10 μg/ml (number of wells) / Antibody: More than 10 μg/ml (number of wells) / % of Occupied / % of Producers / Occupied (number of wells): Teriflunomide 50 μM; for % of Occupied / % of Producers / Occupied (number of wells): 480 wells tested; for Occupied (number of wells): growing clones after 15 to 20 days
# Text: The CHO 9E4 cell line was transfected with two different plasmids bearing the cDNA encoding human DHODH cDNA and the genetic material for production of anti CD38 or 13C3 antibodies (vectors pBH4952 and pBH4967). As a control vector for selection, the plasmid bearing a cDNA encoding human GS cDNA instead of DHODH (pBH3695) was transfected using into CHO 9E4 cell lines. The genetic material was transfected using standard electroporation techniques.
# Twenty four hours post transfection, the selection process was started. […] The control vector was equally transfected and submitted to the same selection process.
# In each case, 480 wells were seeded with 2000 cells/well.
# [3] = test system: CHO 9E4 cells; assay: Preliminary culture of CHO 9E4 cells with leflunomide; format: cell-based, Chinese hamster; details: leflunomide at 50 and 100 μM; preliminary experiments
# Procedure: This obtained 27 wells with growing cells. Of these 27, 4 produced low but significant amount 13C3 antibody. However production was unstable and the efficiency was low below 0.1%. These experiments served as proof of principle that DHODH can be used as a selectable marker for recombinant protein production, so further experiments were performed.
smiles,measurement,setting,value
"CS(=N)(=O)CC[C@H](N)C(=O)O (stereo partly drawn) [MSX, L-methionine sulfoximine]",Occupied (number of wells),[1],46
"Cc1oncc1C(=O)Nc1ccc(C(F)(F)F)cc1 [leflunomide, 5-methyl-N-[4-(trifluoromethyl)phenyl]-isoxazole-4-carboxamide]",antibody in supernatants of the 480 wells,[2]; leflunomide 50 and 100 μM,none of the supernatants showed detectable amount of antibodies
same,wells displaying growing clones,"[2]; leflunomide 50 and 100 μM, DHODH from human or hamster origin, after 20 days",all the wells were displaying growing clones
same,effect on CHO 9E4 cell growth,[3],did not kill the cells but inhibited growth
"C/C(O)=C(\C#N)C(=O)Nc1ccc(C(F)(F)F)cc1 [teriflunomide, (2Z)-2-cyano-3-hydroxy-N-[4-(trifluoromethyl)phenyl]but-2-enamide]",Antibody: Less than 10 μg/ml (number of wells),[2]; 13C3,24
same,Antibody: More than 10 μg/ml (number of wells),[2]; 13C3,14
same,% of Occupied,[2]; 13C3,8%
same,% of Producers,[2]; 13C3,3%
same,Occupied (number of wells),[2]; 13C3,38
same,Antibody: Less than 10 μg/ml (number of wells),[2]; anti-CD38,29
same,Antibody: More than 10 μg/ml (number of wells),[2]; anti-CD38,19
same,% of Occupied,[2]; anti-CD38,10%
same,% of Producers,[2]; anti-CD38,4%
same,Occupied (number of wells),[2]; anti-CD38,48
same,growth of cells transfected with control vector,"[2]; control vector pBH3695 (human GS), 50 and 100 μM teriflunomide, even after 25 days, 480 wells",no growth was observed in any of the wells
same,wells with growing cells,"[2]; teriflunomide-selected, human DHODH vectors pBH4967 and pBH4952, two weeks later",8-10%
same,growth of cells transfected with hamster DHODH vectors,"[2]; teriflunomide-selected, vectors pBH4940 and pBH4939",no growth was observed in any of the wells

# From patent US12203103B2, “Selection marker for cell transfection and protein production” (Sanofi, priority 2014, dated 2025)
